# Data: patent US20230241190A1, “VACCINE FOR TREATING MULTIPLE SCLEROSIS” (RESEARCH & BUSINESS FOUNDATION SUNGKYUNKWAN UNIVERSITY, priority 2022, published 2023)
# Tested on: EAE (experimental autoimmune encephalomyelitis)
# Assay: EAE semi-therapeutic vaccine study (clinical score, EAE-free mice)
# Format: in vivo, C57BL/6 mice
# Conditions: intravenous injection on days 4, 7 and 10 after EAE induction (semi-therapeutics)
# Procedure: EAE was induced in female C57BL/6 mice aged 10-11 weeks using a kit (EK-2110) from Hooke Laboratory (Lawrence, Mass., USA). Briefly, on day 0, mice were subcutaneously injected with an emulsion containing MOG35-55 peptide and complete Freund's adjuvant (CFA), in the lower and upper back. After 2 and 24 h, the animals were intraperitoneally injected with pertussis toxin (PTX) according to the manufacturer's instructions. EAE clinical score was evaluated after day 8, post-EAE induction based on the standard protocol in a blinded manner (0, no obvious symptoms; 0.5, tip of tail was limp; 1, limp tail; 1.5, limp tail and hind leg inhibition; 2, limp tail and weakness of hind legs; 2.5, limp tail and dragging of hind legs; 3, complete paralysis of hind legs; 3.5, complete paralysis of hind legs and hind legs together on one side of the body; 4, full hind leg and partial front leg paralysis; 4.5 full hind leg and partial front leg paralysis, no movement). Paralyzed mice were given easier access to water and food. Mice were euthanized if any of the following conditions were observed unable to eat, unresponsive when scored as 4, when scored as 4 for two consecutive days, both hind limbs and forelimbs were completely paralyzed. […]
substance,measurement,value
myelin oligodendrocyte glycoprotein (MOG) peptide 35-55 [soluble MOG],EAE progression / development (clinical score),slightly delayed EAE progression
